ChEMBL document CHEMBL1201862, “PubChem BioAssay data set” (2004)
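96-well plates; 48 h exposure; 5 concentrations. Endpoints by linear interpolation between flanking doses. Not reached: highest tested concentration assigned. GI50: concentration for 50% inhibition of growth.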 Activity calls are given as the source filed them. Rule as the data show it: active = GI50 up to about 1.1 µM and inactive = higher.

Tests used:
Assay in all cases: NCI anticancer screen, dose series, 48 h
[1] = tested on: CCRF-CEM
[2] = tested on: 786-0
[3] = tested on: HL-60
[4] = tested on: UO-31
[5] = tested on: MOLT-4
[6] = tested on: SK-OV-3
[7] = tested on: OVCAR-5
[8] = tested on: SW-620
[9] = tested on: EKVX
[10] = tested on: K562
[11] = tested on: TK-10
[12] = tested on: SF-539
[13] = tested on: IGROV-1
[14] = tested on: OVCAR-3
[15] = tested on: A549
[16] = tested on: SK-MEL-28

Row | SMILES | GI50 [1] | GI50 [2] | GI50 [3] | GI50 [4] | GI50 [5] | GI50 [6] | GI50 [7] | GI50 [8] | GI50 [9] | GI50 [10] | GI50 [11] | GI50 [12] | GI50 [13] | GI50 [14] | GI50 [15] | GI50 [16]
1 | O=S(=O)(O)C(F)(F)C(F)(F)C(F)(F)C(F)(F)F | > 100 µM (inactive) | > 100 µM (inactive) | > 100 µM (inactive) | > 100 µM (inactive) | > 100 µM (inactive) | > 100 µM (inactive) | > 100 µM (inactive) | > 100 µM (inactive) | > 100 µM (inactive) | > 100 µM (inactive) | > 100 µM (inactive) | > 100 µM (inactive) | > 100 µM (inactive) | > 100 µM (inactive) | > 100 µM (inactive) | –
2 | Cc1cc2c(C)n(Cc3ccccc3Cl)nc2c(C(=O)O)c1C | > 100 µM (inactive) | > 100 µM (inactive) | > 100 µM (inactive) | > 100 µM (inactive) | > 100 µM (inactive) | > 100 µM (inactive) | > 100 µM (inactive) | > 100 µM (inactive) | > 100 µM (inactive) | – | > 100 µM (inactive) | > 100 µM (inactive) | > 100 µM (inactive) | > 100 µM (inactive) | > 100 µM (inactive) | > 100 µM (inactive)
3 | CC(C)C(=S)N(C)O | 0.502 µM (active) | 18.3 µM (inactive) | 1.35 µM (inactive) | 9.64 µM (inactive) | 0.809 µM (active) | 55.3 µM (inactive) | > 65.5 µM (inactive) | 1.52 µM (inactive) | 23.1 µM (inactive) | 0.42 µM (active) | > 51.3 µM (inactive) | 25.6 µM (inactive) | > 62.5 µM (inactive) | 2.82 µM (inactive) | 12.4 µM (inactive) | 37.6 µM (inactive)
4 | CCOC(OC1=CCCC1)C(C)[Se]c1ccccc1 (stereo not drawn) | 15.2 µM (inactive) | 19.1 µM (inactive) | 14.6 µM (inactive) | 39.3 µM (inactive) | 22.3 µM (inactive) | > 100 µM (inactive) | 28.9 µM (inactive) | – | 34.2 µM (inactive) | 55.5 µM (inactive) | > 100 µM (inactive) | 23.8 µM (inactive) | 41 µM (inactive) | 34.5 µM (inactive) | 34.8 µM (inactive) | 42.1 µM (inactive)
5 | Cc1ccc(S(=O)(=O)OCCn2cnc3nc(NC(=O)c4ccccc4)[nH]c(=O)c32)cc1 | > 100 µM (inactive) | > 100 µM (inactive) | > 100 µM (inactive) | > 100 µM (inactive) | – | > 100 µM (inactive) | > 100 µM (inactive) | > 100 µM (inactive) | > 100 µM (inactive) | > 100 µM (inactive) | > 100 µM (inactive) | > 100 µM (inactive) | > 100 µM (inactive) | > 100 µM (inactive) | > 100 µM (inactive) | > 100 µM (inactive)
6 | CCOC(=O)NC(=O)c1cn(CCCCCCCCCCC(=O)N2CCN(CCn3cc(C(=O)NC(=O)OCC)c(=O)[nH]c3=O)CC2)c(=O)[nH]c1=O | > 100 µM (inactive) | > 100 µM (inactive) | > 100 µM (inactive) | – | > 100 µM (inactive) | > 100 µM (inactive) | – | > 100 µM (inactive) | > 100 µM (inactive) | > 100 µM (inactive) | > 100 µM (inactive) | > 100 µM (inactive) | > 100 µM (inactive) | > 100 µM (inactive) | > 100 µM (inactive) | > 100 µM (inactive)
7 | CCOC(=O)C1=C(OC(OCC)C(CC)[Se]c2ccccc2)CCCC1 (stereo not drawn) | 11.4 µM (inactive) | 15.6 µM (inactive) | 15.9 µM (inactive) | 35.3 µM (inactive) | 14.7 µM (inactive) | > 100 µM (inactive) | 26.3 µM (inactive) | – | 34.4 µM (inactive) | 34.2 µM (inactive) | > 100 µM (inactive) | 17.8 µM (inactive) | 26.8 µM (inactive) | 21.1 µM (inactive) | 45.3 µM (inactive) | 40.5 µM (inactive)
8 | CC1=C(c2ccccc2)CON(c2ccccc2)C1 | 25.1 µM (inactive) | 36.8 µM (inactive) | 26.6 µM (inactive) | 29.7 µM (inactive) | 29.6 µM (inactive) | > 100 µM (inactive) | 32.9 µM (inactive) | 39.4 µM (inactive) | 46.6 µM (inactive) | 30.1 µM (inactive) | – | 40.6 µM (inactive) | 43.3 µM (inactive) | 85.7 µM (inactive) | 54.5 µM (inactive) | 31 µM (inactive)
9 | NCCCNC(=O)c1csc(NC(=O)c2csc(NC(=O)CCCN)n2)n1 | > 100 µM (inactive) | > 100 µM (inactive) | > 100 µM (inactive) | > 100 µM (inactive) | > 100 µM (inactive) | > 100 µM (inactive) | > 100 µM (inactive) | – | > 100 µM (inactive) | > 100 µM (inactive) | > 100 µM (inactive) | > 100 µM (inactive) | > 100 µM (inactive) | > 100 µM (inactive) | > 100 µM (inactive) | > 100 µM (inactive)
10 | CCOC(=O)CNC(=O)OCc1ccccc1 | > 100 µM (inactive) | > 100 µM (inactive) | > 100 µM (inactive) | > 100 µM (inactive) | > 100 µM (inactive) | > 100 µM (inactive) | > 100 µM (inactive) | > 100 µM (inactive) | – | > 100 µM (inactive) | > 100 µM (inactive) | > 100 µM (inactive) | > 100 µM (inactive) | > 100 µM (inactive) | > 100 µM (inactive) | > 100 µM (inactive)
11 | C=C(C=O)CCCC(C)[C@@H]1CCC23CC12CCC1[C@@]2(C)CCC(OC(C)=O)C(C)(C)C2CC(OC2OC(COC(C)=O)C(O)C(O)C2O)[C@]13C (stereo partly drawn) | 1.03 µM (active) | 6.87 µM (inactive) | 0.643 µM (active) | 5.42 µM (inactive) | 0.861 µM (active) | 6.15 µM (inactive) | 5.98 µM (inactive) | 0.798 µM (active) | 7.33 µM (inactive) | 1.44 µM (inactive) | 6.58 µM (inactive) | 5.7 µM (inactive) | 2.15 µM (inactive) | 2.72 µM (inactive) | 6.34 µM (inactive) | 0.845 µM (active)
12 | CN1N=C2c3ccccc3CC[C@H]2C1c1cccc(O)c1 (stereo partly drawn) | > 100 µM (inactive) | > 100 µM (inactive) | > 100 µM (inactive) | 32.4 µM (inactive) | > 100 µM (inactive) | > 100 µM (inactive) | > 100 µM (inactive) | > 100 µM (inactive) | > 100 µM (inactive) | 74.1 µM (inactive) | > 100 µM (inactive) | > 100 µM (inactive) | > 100 µM (inactive) | > 100 µM (inactive) | 85.5 µM (inactive) | > 100 µM (inactive)
13 | O=C(O)CCCNS(=O)(=O)c1ccccc1 | > 100 µM (inactive) | > 100 µM (inactive) | > 100 µM (inactive) | > 100 µM (inactive) | > 100 µM (inactive) | > 100 µM (inactive) | > 100 µM (inactive) | > 100 µM (inactive) | > 100 µM (inactive) | > 100 µM (inactive) | > 100 µM (inactive) | > 100 µM (inactive) | > 100 µM (inactive) | > 100 µM (inactive) | > 100 µM (inactive) | > 100 µM (inactive)
